Measurements: patent US4962020A, “DNA sequencing” (President and Fellows of Harvard College, priority 1988, dated 1990)
Read-outs that look alike come from different tables or passages of the source.

Tests used:
DNA polymerase = test: ddNTP versus dNTP incorporation (discrimination) in primer extension / sequencing reaction with metal ions; assay type: biochemical; details: for effect of cation on DNA synthesis / sequencing reaction: monovalent and divalent cations tested
Protocol: In order to determine whether any particular DNA polymerase, in combination with any particular chain terminating agent, or other component of a sequencing reaction mixture, is useful in this invention, a standard sequencing reaction is performed, as described below and shown in the drawings, and the extent of band formation, and the uniformity of nearby bands in a sequencing gel, reviewed. […] Adjacent band uniformity within a two-fold or less range is useful in this invention, preferably the uniformity is within a 1.0-1.5 fold range. Similarly, determination of optimum cation concentration, or of other potential cations useful in the invention, is determined by use of this sequencing reaction under various conditions. For example, cations are tested in ranges from 0.005-100 mM. An example of such an experiment follows:
DNA synthesis is measured using a 17-mer primer of sequence 5'-[…]-3' (New England Biolabs catalog number 1211) that has been labeled with ^32 P at its 5' end and annealed to single-stranded mGPl-2 DNA. Tabor et al., proc. Nat. Acad. Sci. USA 84:4767 (1987) and Tabor et al., J. Biol. Chem. 262:16212 (1987). Any other template is equally useful in this reaction. This primer-template is used in a reaction that contains a DNA polymerase in the presence of a range of concentrations of a metal ion. Reactions are carried out in the presence of a given concentration of all 4 deoxynucleotides (dNTPS, 20-200 μM), and over a range of concentrations of one dideoxynucleotide (ddNTP, in this example, ddGTP from 10-500 μM). The DNA products are then analyzed by polyacrylamide gel electrophoresis, where DNA synthesis is detected as extensions of the primer producing bands, representing extensions of various molecular weights, in the gel.
In a specific example, each reaction mixture (10μl) contained 0.1 μg^32 P-primer-template, 40 mM Tris-HCl pH 7.5, 5 mM dithiothreitol (DTT) 5μM to 20mM metal ion, 10 to 500 μM 4dNTPs, 1 to 500 μM ddNTPs, and 2 units of a DNA polymerase. Incubation was at 37° C. for 15 min. The reaction was stopped by addition of 10μl of 90% formamide, 50 mM EDTA, and 0.1% bromophenol blue.
Electrophoresis was at 2000 volts for 2 hours. The gel was fixed in 50% methanol, 10% acetic acid for 30 min., dried, and exposed, for autoradiography. Band intensity in each lane of the resulting film was determined by scanning each lane with a densitometer. The densitometer used was a double-beam recording instrument, model MkIIIC (Joyce, Loebl & Co., Ltd., Gateshead-on-tyne, II, England). Any suitable densitometer instrument for scanning gels will also work. Alternatively, the uniformity of the resulting bands can be determined by scanning the DNA products as they are electrophoresed within the gel.
The ability to incorporate a given ddNTP compared to the corresponding dNTP for any one enzyme is measured as the ratio of ddNTP to dNTP necessary to allow DNA synthesis that terminates in a fixed range, detected as producing bands of no greater than a fixed molecular weight. That is, the bands produced in the reaction end within a specified range in the sequencing gel. Thus, if one enzyme discriminates 1000-fold greater against a given ddNTP compared to another enzyme, a 1000-fold higher ratio of ddNTP to dNTP will be necessary to obtain bands terminating at the corresponding sites in the same range of the gel.

[1] = biological target: genetically modified T7 DNA polymerase (ΔLys118-Arg145) (Escherichia phage T7, UniProt P00581, DEL118-145)
Sequence of genetically modified T7 DNA polymerase (ΔLys118-Arg145) (P00581 with tags, fused parts or gaps DEL118-145): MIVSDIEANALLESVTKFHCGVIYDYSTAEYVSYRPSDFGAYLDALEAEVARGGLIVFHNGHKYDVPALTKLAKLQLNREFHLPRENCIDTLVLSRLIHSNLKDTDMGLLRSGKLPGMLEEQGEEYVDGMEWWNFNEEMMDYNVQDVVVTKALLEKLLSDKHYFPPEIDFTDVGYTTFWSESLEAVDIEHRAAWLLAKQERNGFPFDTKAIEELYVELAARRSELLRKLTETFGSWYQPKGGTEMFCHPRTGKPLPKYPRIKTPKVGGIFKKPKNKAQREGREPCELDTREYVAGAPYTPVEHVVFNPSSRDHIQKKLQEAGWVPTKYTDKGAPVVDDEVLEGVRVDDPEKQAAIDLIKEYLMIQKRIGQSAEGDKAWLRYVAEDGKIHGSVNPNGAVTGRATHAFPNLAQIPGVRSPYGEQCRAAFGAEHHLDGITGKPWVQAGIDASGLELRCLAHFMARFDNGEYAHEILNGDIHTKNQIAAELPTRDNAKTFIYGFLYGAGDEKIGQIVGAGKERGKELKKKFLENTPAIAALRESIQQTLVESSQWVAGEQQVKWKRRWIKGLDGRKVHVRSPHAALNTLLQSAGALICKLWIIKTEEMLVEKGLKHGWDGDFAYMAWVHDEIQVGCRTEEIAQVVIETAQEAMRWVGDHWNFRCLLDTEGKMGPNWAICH

[2] = biological target: T1, genetically modified T7 DNA polymerase (Escherichia phage T7, UniProt P00581, DEL118-145); assay type: biochemical
T1 construct: made in house; host or cells: E. coli strain K38/pTrx-3/pGP5-8
T1 sequence (P00581 other isoform, or with tags, fused parts or gaps DEL118-145): as the sequence (P00581 with tags, fused parts or gaps DEL118-145) above
T1 sequence (P0AA25 2-109, stated change not applied, further chain): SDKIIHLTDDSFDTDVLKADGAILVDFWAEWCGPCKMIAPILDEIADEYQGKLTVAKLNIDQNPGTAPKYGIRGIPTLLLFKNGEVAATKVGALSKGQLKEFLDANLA

[Ba] [Ba]
effect of cation on DNA synthesis / sequencing reaction (DNA polymerase): no detectable effect, or are detrimental to DNA synthesis

[Be] [Be]
effect of cation on DNA synthesis / sequencing reaction (DNA polymerase): no detectable effect, or are detrimental to DNA synthesis

[Ca] [Ca]
effect of cation on DNA synthesis / sequencing reaction (DNA polymerase): no detectable effect, or are detrimental to DNA synthesis

[Ce] [Ce]
effect of cation on DNA synthesis / sequencing reaction (DNA polymerase): no detectable effect, or are detrimental to DNA synthesis

[Co] [Co]
effect of cation on DNA synthesis / sequencing reaction (DNA polymerase): no detectable effect, or are detrimental to DNA synthesis

[Cr] [Cr]
effect of cation on DNA synthesis / sequencing reaction (DNA polymerase): no detectable effect, or are detrimental to DNA synthesis

[Cu] [Cu]
effect of cation on DNA synthesis / sequencing reaction (DNA polymerase): no detectable effect, or are detrimental to DNA synthesis

[Na] [Na]
effect of cation on DNA synthesis / sequencing reaction (DNA polymerase): no detectable effect, or are detrimental to DNA synthesis

[Ni] [Ni]
effect of cation on DNA synthesis / sequencing reaction (DNA polymerase): no detectable effect, or are detrimental to DNA synthesis

[Si] [Si]
effect of cation on DNA synthesis / sequencing reaction (DNA polymerase): no detectable effect, or are detrimental to DNA synthesis

[Zn] [Zn]
effect of cation on DNA synthesis / sequencing reaction (DNA polymerase): no detectable effect, or are detrimental to DNA synthesis

O=c1[nH]cnc2c1ncn2[C@H]1CC[C@@H](COP(=O)(O)OP(=O)(O)OP(=O)(O)O)O1 [ddITP, dideoxy ITP, reference compound]
discrimination against ddITP compared to ddGTP (DNA polymerase; in the presence of Mn): 10 fold

O=C([O-])CC(C(=O)[O-])C(O)C(=O)[O-].[Na+].[Na+].[Na+] (stereo not drawn) [isocitrate, sodium isocitrate]
optimal isocitrate concentration [1]: 40 mM
effect of isocitrate on polymerase activity ([1]; 10 mM magnesium, any amount of isocitrate, FIG. 9): inhibitory effect on polymerase
stimulation of polymerase activity ([1]; t7 dna polymerase, 0.5 h, 40000 µM, pH 7.5): 4 fold

[Mg+2] [magnesium]
intensity of underlined bases in triplets versus adjacent bases ([2]; Example 1 sample run with magnesium in place of manganese): 2-5 fold
variation of nearby band intensity ([2]; all four ddNTPs at equal concentration, magnesium, FIG. 6): varies greatly
variation of nearby band intensity (peak height) ([2]; ddGTP only, magnesium instead of manganese, FIG. 3): ≤ 10 fold
optimum ion concentration in a sequencing reaction (polymerase activity) ([1]; absence of a chelator, FIG. 8): 20 mM

[Mn+2] [manganese]
difference in band intensity between bases in the triplets TCT, AAG, GCA, CCT ([2]; Example 1, manganese in sequencing buffer, densitometer): at most 20%
variation of nearby bands and peaks ([2]; all four ddNTPs at 0.75 μM each, manganese, FIG. 5): no more than 1.5 fold
optimum ion concentration in a sequencing reaction (polymerase activity) [1]: 1 mM
optimum manganese concentration [1]: 5 to 20 mM

Taq polymerase: DNA polymerase used for sequencing
lessening of the requirement for chain terminating agents (dideoxynucleosides) (DNA polymerase; in the presence of manganese or iron ions): ~1000 fold
